From US8288375B2, “Fungicidal bicyclic pyrazoles” (E.I. du Pont de Nemours and Company, priority 2007, dated 2012)

What was measured:
Format in all cases: in vivo
[1] = test system: Rhizoctonia oryzae; assay: Test I: turf brown patch, test suspension sprayed on creeping bent grass seedlings, disease rating; conditions: 200 ppm test suspension
[2] = test system: Fusarium graminearum; assay: whole plant or invertebrate; conditions: 200 ppm test suspension
[3] = test system: Botrytis cinerea; assay: Test H: tomato Botrytis, test suspension sprayed on tomato seedlings, disease rating; conditions: 200 ppm test suspension
[4] = test system: Pythium aphanidermatum; assay: Test L: bluegrass pythium blight, test suspension sprayed on bluegrass seedlings, disease rating; conditions: 200 ppm test suspension;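 further: 200 ppm unless marked * meaning 40 ppm or ** meaning 10 ppm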
[5] = test system: Phytophthora infestans; assay: whole plant or invertebrate; conditions: 200 ppm test suspension
[6] = test system: Erysiphe graminis f. sp. tritici; assay: Test A: wheat powdery mildew, test suspension sprayed on wheat seedlings, disease rating; conditions: 200 ppm test suspension; 100 = 100% disease control, 0 = no control
[7] = test system: Septoria nodorum; assay: Test D: wheat glume blotch, test suspension sprayed on wheat seedlings, disease rating; conditions: 200 ppm test suspension
[8] = test system: Plasmopara viticola; assay: Test K: grape downy mildew, grape seedlings inoculated and then sprayed, disease rating; conditions: 200 ppm test suspension
[9] = test system: Colletotrichum orbiculare; assay: Test F: cucumber Colletotrichum anthracnose, test suspension sprayed on cucumber seedlings, disease rating; conditions: 200 ppm test suspension
[10] = test system: Puccinia recondite f sp. tritici; assay: Test B: wheat leaf rust, test suspension sprayed on wheat seedlings, disease rating; conditions: 200 ppm test suspension;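 further: 200 ppm unless marked * meaning 40 ppm or ** meaning 10 ppm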

**Q.** Which results are given for CCNc1nccc(-c2c(-c3ccc(F)cc3)nn3c2CCCC3)n1 [compound 18]?
**A.** Test I disease control rating [1]: 0%; Test C disease control rating [2]: 100%; Test H disease control rating [3]: 74%; Test L disease control rating [4]: 100%; Test J disease control rating [5]: 99%; Test A disease control rating [6]: 96%; Test D disease control rating [7]: 97%; Test K disease control rating [8]: 0%; Test F disease control rating [9]: 98%; Test B disease control rating [10]: 100%

**Q.** Which “Test I disease control rating” value [1] does the source give for CCC(C)Nc1nccc(-c2c(-c3ccc(F)cc3)nn3c2CCCC3)n1 (centres unmarked) [compound 19] here?
**A.** Its value is 0%.

**Q.** What about the “Test C disease control rating” value [2] of the same molecule?
**A.** Its value is 100%.

**Q.** And the “Test H disease control rating” value [3]?
**A.** The value was 74%.

**Q.** What about the “Test L disease control rating” value [4] of the same molecule?
**A.** The value was 93%.

**Q.** What about the “Test J disease control rating” value [5] of the same molecule?
**A.** The value was 31%.

**Q.** And the “Test A disease control rating” value [6]?
**A.** Its value is 26%.

**Q.** And the “Test D disease control rating” value [7]?
**A.** The value was 98%.

**Q.** What about the “Test K disease control rating” value [8] of the same molecule?
**A.** The value was 0%.

**Q.** And the “Test F disease control rating” value [9]?
**A.** Its value is 66%.

**Q.** And the “Test B disease control rating” value [10]?
**A.** Its value is 99%.

**Q.** How did the “Test I disease control rating” value [1] turn out when CCC(C)Nc1nccc(-c2c(-c3ccc(F)cc3)nn3c2CCCC3)n1 (centres unmarked) [compound 20] was run?
**A.** The value was 0%.

**Q.** And the “Test C disease control rating” value [2]?
**A.** The value was 100%.

**Q.** What about the “Test H disease control rating” value [3] of the same molecule?
**A.** Its value is 96%.

**Q.** What about the “Test L disease control rating” value [4] of the same molecule?
**A.** The value was 100%.

**Q.** What about the “Test J disease control rating” value [5] of the same molecule?
**A.** The value was 99%.

**Q.** What about the “Test A disease control rating” value [6] of the same molecule?
**A.** Its value is 78%.

**Q.** And the “Test D disease control rating” value [7]?
**A.** The value was 99%.

**Q.** What about the “Test K disease control rating” value [8] of the same molecule?
**A.** The value was 0%.

**Q.** And the “Test F disease control rating” value [9]?
**A.** The value was 88%.

**Q.** And the “Test B disease control rating” value [10]?
**A.** Its value is 99%.

**Q.** With COCC(C)Nc1nccc(-c2c(-c3ccc(F)cc3)nn3c2CCC3)n1 (centres unmarked) [compound 84] as the molecule, how does the “Test I disease control rating” value [1] read?
**A.** The value was 16%.

**Q.** And the “Test C disease control rating” value [2]?
**A.** The value was 100%.

**Q.** What about the “Test H disease control rating” value [3] of the same molecule?
**A.** Its value is 52%.

**Q.** What about the “Test L disease control rating” value [4] of the same molecule?
**A.** Its value is 100%.

**Q.** And the “Test J disease control rating” value [5]?
**A.** The value was 93%.

**Q.** What about the “Test A disease control rating” value [6] of the same molecule?
**A.** The value was 60%.

**Q.** What about the “Test D disease control rating” value [7] of the same molecule?
**A.** The value was 99%.

**Q.** And the “Test K disease control rating” value [8]?
**A.** The value was 0%.

**Q.** And the “Test F disease control rating” value [9]?
**A.** Its value is 98%.

**Q.** What about the “Test B disease control rating” value [10] of the same molecule?
**A.** The value was 99%.

**Q.** Which results are given for CCC(C)Nc1nccc(-c2c(-c3ccc(F)cc3)nn3c2CCC3)n1 (centres unmarked) [compound 85]?
**A.** Test I disease control rating [1]: 16%; Test C disease control rating [2]: 100%; Test H disease control rating [3]: 52%; Test L disease control rating [4]: 100%; Test J disease control rating [5]: 67%; Test A disease control rating [6]: 0%; Test D disease control rating [7]: 82%; Test K disease control rating [8]: 0%; Test F disease control rating [9]: 88%; Test B disease control rating [10]: 99%

**Q.** For CNc1nccc(-c2c(-c3ccc(F)cc3)nn3c2CCC3)n1 [compound 90], which “Test I disease control rating” value [1] is on record?
**A.** The value was 0%.

**Q.** What about the “Test C disease control rating” value [2] of the same molecule?
**A.** The value was 100%.

**Q.** And the “Test H disease control rating” value [3]?
**A.** The value was 0%.

**Q.** And the “Test L disease control rating” value [4]?
**A.** Its value is 97%.

**Q.** What about the “Test J disease control rating” value [5] of the same molecule?
**A.** The value was 99%.

**Q.** What about the “Test A disease control rating” value [6] of the same molecule?
**A.** Its value is 96%.

**Q.** What about the “Test D disease control rating” value [7] of the same molecule?
**A.** The value was 100%.

**Q.** And the “Test K disease control rating” value [8]?
**A.** Its value is 0%.

**Q.** What about the “Test F disease control rating” value [9] of the same molecule?
**A.** Its value is 17%.

**Q.** What about the “Test B disease control rating” value [10] of the same molecule?
**A.** Its value is 99%.

**Q.** Which “Test I disease control rating” value [1] does the source give for CC(C)Nc1nccc(-c2c(-c3ccc(F)cc3)nn3c2CCC3)n1 [compound 91] here?
**A.** The value was 0%.

**Q.** And the “Test C disease control rating” value [2]?
**A.** The value was 100%.

**Q.** What about the “Test H disease control rating” value [3] of the same molecule?
**A.** Its value is 99%.

**Q.** What about the “Test L disease control rating” value [4] of the same molecule?
**A.** The value was 88%.

**Q.** What about the “Test J disease control rating” value [5] of the same molecule?
**A.** The value was 0%.

**Q.** And the “Test A disease control rating” value [6]?
**A.** Its value is 74%.

**Q.** What about the “Test D disease control rating” value [7] of the same molecule?
**A.** Its value is 98%.

**Q.** What about the “Test K disease control rating” value [8] of the same molecule?
**A.** The value was 0%.

**Q.** What about the “Test F disease control rating” value [9] of the same molecule?
**A.** The value was 16%.

**Q.** And the “Test B disease control rating” value [10]?
**A.** The value was 99%.

**Q.** What does the source list for Fc1ccc(-c2nn3c(c2-c2ccnc(NC4CC4)n2)CCC3)cc1 [compound 92]?
**A.** Test I disease control rating [1]: 0%; Test C disease control rating [2]: 100%; Test H disease control rating [3]: 90%; Test L disease control rating [4]: 99%; Test J disease control rating [5]: 99%; Test A disease control rating [6]: 94%; Test D disease control rating [7]: 99%; Test K disease control rating [8]: 0%; Test F disease control rating [9]: 80%; Test B disease control rating [10]: 99%
